Assay results as given in patent US9241947B2, “Boronic acid derivatives and therapeutic uses thereof” (priority 2013, dated 2016).
Read-outs that look alike come from different tables or passages of the source.

Legend:
[1] = test system: KP1081 (NDM-1, TEM-1, SHV-11, CMY-6, CTX-M-15); test: Carbapenem potentiation against clinical isolate; assay type: cell-based; conditions: Klebsiella pneumoniae, strain KP1081
Text: (§1) The results are present in Table 6.
(§2) The results are present in Table 7.

NDM-1 [2] = biological target: T1, NDM-1 (Klebsiella pneumoniae, UniProt C7C422); assay type: biochemical
T1 sequence (C7C422 29-270 limits assumed): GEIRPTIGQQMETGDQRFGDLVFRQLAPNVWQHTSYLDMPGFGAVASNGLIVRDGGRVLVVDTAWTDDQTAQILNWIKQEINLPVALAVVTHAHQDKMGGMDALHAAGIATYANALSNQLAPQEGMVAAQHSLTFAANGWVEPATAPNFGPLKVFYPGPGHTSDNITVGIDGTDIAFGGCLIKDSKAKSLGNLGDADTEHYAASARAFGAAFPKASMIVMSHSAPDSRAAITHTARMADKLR

VIM-1 = biological target: T2, VIM-1 (Pseudomonas aeruginosa, UniProt A0A0F7KYQ8); assay type: biochemical; conditions: cleavage of nitrocefin (200 uM) by VIM-1 supernatant
T2 construct: made in house; host or cells: ECM6711 strain carrying pUCP24-VIM-1 plasmid (culture supernatant, not purified)

NDM-1 [3] = biological target: T1, NDM-1; assay type: biochemical; conditions: read-out: Ki NDM-1, Imipenem
ECM6703 pUCP24-NDM-1 = assay type: cell-based, E. coli; conditions: Compound 1 at fixed 4 μg/ml or 8 μg/ml; NDM-1 producing strain
ECM6711 pUCP24-VIM-1 = assay type: cell-based, E. coli; conditions: Compound 1 at fixed 4 μg/ml or 8 μg/ml; VIM-1 producing strain
[4] = test system: clinical isolates expressing class A, B and D carbapenemases; test: Carbapenem potentiation against panel of clinical isolates; assay type: cell-based; conditions: Compound 1 at fixed 5 μg/ml; biapenem, doripenem, imipenem, meropenem; all the strains
Text: as §1

OXA-48 = OXA-48 (Klebsiella pneumoniae, UniProt Q6XEC0); test: Inhibition of purified class D carbapenemase, biapenem substrate; assay type: biochemical; conditions: purified enzyme
OXA-48, sequence (Q6XEC0 23-265 limits assumed): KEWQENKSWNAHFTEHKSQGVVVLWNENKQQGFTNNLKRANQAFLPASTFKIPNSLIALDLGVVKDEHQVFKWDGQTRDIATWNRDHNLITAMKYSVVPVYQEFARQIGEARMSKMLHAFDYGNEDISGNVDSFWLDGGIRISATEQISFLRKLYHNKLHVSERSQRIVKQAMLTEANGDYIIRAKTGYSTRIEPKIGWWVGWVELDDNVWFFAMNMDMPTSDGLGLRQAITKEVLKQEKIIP

SHV-12 = SHV-12 (Klebsiella pneumoniae, UniProt P0AD64, E235K/G234S/L31Q); test: Inhibition of nitrocefin cleavage by purified enzyme; assay type: biochemical; conditions: nitrocefin substrate; read-out: Ki (SHV-12, NCF)
SHV-12, sequence (P0AD64 22-286 L31Q/G234S/E235K): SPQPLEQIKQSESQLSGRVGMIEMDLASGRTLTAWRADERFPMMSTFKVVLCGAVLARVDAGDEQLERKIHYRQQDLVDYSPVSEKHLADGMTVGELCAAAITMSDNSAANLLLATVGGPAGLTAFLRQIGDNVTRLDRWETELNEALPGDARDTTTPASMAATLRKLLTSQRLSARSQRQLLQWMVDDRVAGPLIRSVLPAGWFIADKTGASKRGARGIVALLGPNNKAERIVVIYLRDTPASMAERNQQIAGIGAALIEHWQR
Experimental: Purified enzymes were mixed with various concentrations of inhibitors in reaction buffer and incubated for 10 min at room temperature. Nitrocefin was added and substrate cleavage profiles were recorded at 490 nm every 10 sec for 10 min.

AB1144 (NDM-1) = test: Carbapenem potentiation against clinical isolate; assay type: cell-based; conditions: Acinetobacter baumannii
Text: as §1, §2

[5] = test system: EC1064 (NDM-1, CMY-6, CTX-M-15); test: Carbapenem potentiation against clinical isolate; assay type: cell-based; conditions: Escherichia coli, strain EC1064
Text: as §1, §2

[6] = test system: KP1004 (KPC-2, TEM-1, SHV-11); test: Carbapenem potentiation against clinical isolate; assay type: cell-based; conditions: Klebsiella pneumoniae, strain KP1004
Text: as §1, §2

KP1014 (VIM-1) = test: Carbapenem potentiation against clinical isolate; assay type: cell-based; conditions: Klebsiella pneumoniae, strain KP1014
Text: as §1, §2

KP1054 (VIM-1, SHV-11) = test: Carbapenem potentiation against clinical isolate; assay type: cell-based; conditions: Klebsiella pneumoniae, strain KP1054
Text: as §1, §2

[7] = test system: KP1064 (KPC-2, SHV-11, TEM-1); test: Carbapenem potentiation against clinical isolate; assay type: cell-based; conditions: Klebsiella pneumoniae, strain KP1064
Text: as §1, §2

[8] = test system: KP1074 (KPC-3, SHV-11, TEM); test: Carbapenem potentiation against clinical isolate; assay type: cell-based; conditions: Klebsiella pneumoniae, strain KP1074
Text: as §1, §2

[9] = test system: KP1084 (KPC-3, SHV-11, TEM-1); test: Carbapenem potentiation against clinical isolate; assay type: cell-based; conditions: Klebsiella pneumoniae, strain KP1084
Text: as §1, §2

[10] = test system: KP1086 (TEM, SHV, CTX-M-15, OXA-48); test: Carbapenem potentiation against clinical isolate; assay type: cell-based; conditions: Klebsiella pneumoniae, strain KP1086
Text: as §1, §2

[11] = test system: KP1087 (KPC-2, CTX-M-15, SHV-11, TEM-1); test: Carbapenem potentiation against clinical isolate; assay type: cell-based; conditions: Klebsiella pneumoniae, strain KP1087
Text: as §1, §2

[12] = cleavage of biapenem (100 uM) by NDM-1, read-out: Ki, Biapenem
[13] = cleavage of tebipenem (100 uM) by NDM-1, read-out: Ki, Tebipenem

Row | SMILES | Ki (NDM-1 [2]; read-out: Ki, Imipenem) | IC50 (VIM-1) | Ki (NDM-1 [3]) | Ki (SHV-12) | also measured
1 | C[C@@H](O)[C@H]1C(=O)N2C(C(=O)[O-])=C(SC3Cn4cnc[n+]4C3)[C@H](C)[C@H]12 (stereo partly drawn) [Biapenem] | – | – | – | – | MIC ([1]; read-out: Biapenem MIC Alone): > 10 µg/mL
2 | O=C(O)c1cccc2c1OB(O)[C@@H](Sc1nncs1)C2 [Compound 1, (R)-3-(1,3,4-thiadiazol-2-ylthio)-2-hydroxy-3,4-dihydro-2H-benzo[e][1,2]oxaborinine-8-carboxylic acid] | 10 to 100 nM | < 1000 nM | 10 to 100 nM | – | Ki (NDM-1 [2]; [12]): 10 to 100 nM; Ki (NDM-1 [2]; [13]): > 100 nM; imipenem MIC in the presence of Compound 1 (ECM6703 pUCP24-NDM-1): decreased to the level of the strain containing empty vector; imipenem MIC in the presence of Compound 1 (ECM6711 pUCP24-VIM-1): decreased to the level of the strain containing empty vector; carbapenem MIC in the presence of Compound 1 [4]: significantly reduced
3 | O=C(O)c1cccc2c1OB(O)[C@@H](Sc1nnc[nH]1)C2 [Compound 2, (R)-3-(4H-1,2,4-triazol-3-ylthio)-2-hydroxy-3,4-dihydro-2H-benzo[e][1,2]oxaborinine-8-carboxylic acid] | < 10 nM | < 1000 nM | < 10 nM | < 100 nM | Ki (NDM-1 [2]; [13]): 10 to 100 nM; Ki (OXA-48): 10 to 100 nM
4 | NC(=O)CS[C@H]1Cc2cccc(C(=O)O)c2OB1O [Compound 3, (R)-3-(2-amino-2-oxoethylthio)-2-hydroxy-3,4-dihydro-2H-benzo[e][1,2]oxaborinine-8-carboxylic acid] | > 100 nM | – | > 100 nM | 100 to 1000 nM | Ki (NDM-1 [2]; [12]): > 100 nM; Ki (NDM-1 [2]; [13]): > 100 nM; Ki (OXA-48): < 10 nM
5 | Nc1nnc(S[C@H]2Cc3cccc(C(=O)O)c3OB2O)s1 [Compound 4, (R)-3-(5-amino-1,3,4-thiadiazol-2-ylthio)-2-hydroxy-3,4-dihydro-2H-benzo[e][1,2]oxaborinine-8-carboxylic acid] | < 10 nM | < 1000 nM | < 10 nM | < 100 nM | Ki (NDM-1 [2]; [12]): < 10 nM; Ki (NDM-1 [2]; [13]): < 10 nM; Ki (OXA-48): < 10 nM
6 | Cn1nnnc1S[C@H]1Cc2cccc(C(=O)O)c2OB1O [Compound 5, (R)-2-hydroxy-3-(1-1H-tetrazol-5-ylthio)-3,4-dihydro-2H-benzo[e][1,2]oxaborinine-8-carboxylic acid] | 10 to 100 nM | ≥ 1000 nM | 10 to 100 nM | – | –
7 | O=C(O)c1cccc2c1OB(O)[C@@H](Sc1ccccc1)C2 [Compound 6, (R)-2-hydroxy-3-(phenylthio)-3,4-dihydro-2H-benzo[e][1,2]oxaborinine-8-carboxylic acid] | < 10 nM | < 1000 nM | < 10 nM | – | –
8 | CC(=O)Nc1nnc(S[C@H]2Cc3cccc(C(=O)O)c3OB2O)s1 [Compound 7, (R)-3-(5-acetamido-1,3,4-thiadiazol-2-ylthio)-2-hydroxy-3,4-dihydro-2H-benzo[e][1,2]oxaborinine-8-carboxylic acid] | 10 to 100 nM | < 1000 nM | 10 to 100 nM | < 100 nM | Ki (OXA-48): < 10 nM
9 | O=C(O)c1cccc2c1OB(O)[C@@H](Sc1cccnc1)C2 [Compound 8, (R)-2-hydroxy-3-(pyridin-3-ylthio)-3,4-dihydro-2H-benzo[e][1,2]oxaborinine-8-carboxylic acid] | > 100 nM | < 1000 nM | > 100 nM | – | –
10 | NC(=O)CCS[C@H]1Cc2cccc(C(=O)O)c2OB1O [Compound 9, (R)-3-(3-amino-3-oxopropylthio)-2-hydroxy-3,4-dihydro-2H-benzo[e][1,2]oxaborinine-8-carboxylic acid] | > 100 nM | < 1000 nM | > 100 nM | 100 to 1000 nM | Ki (OXA-48): 10 to 100 nM
11 | CC(=N)S[C@H]1Cc2cccc(C(=O)O)c2OB1O [Compound 10, (R)-2-hydroxy-3-(1-iminoethylthio)-3,4-dihydro-2H-benzo[e][1,2]oxaborinine-8-carboxylic acid] | 10 to 100 nM | ≥ 1000 nM | 10 to 100 nM | – | –
12 | O=C(O)c1cccc2c1OB(O)[C@@H](Sc1nccs1)C2 [Compound 11, (R)-2-hydroxy-3-(thiazol-2-ylthio)-3,4-dihydro-2H-benzo[e][1,2]oxaborinine-8-carboxylic acid] | > 100 nM | ≥ 1000 nM | > 100 nM | < 100 nM | –
13 | O=C(O)c1cccc2c1OB(O)[C@@H](Sc1c[nH]nn1)C2 [Compound 12, (R)-3-(1H-1,2,3-triazol-4-ylthio)-2-hydroxy-3,4-dihydro-2H-benzo[e][1,2]oxaborinine-8-carboxylic acid] | 10 to 100 nM | < 1000 nM | 10 to 100 nM | – | –
14 | O=C(O)c1cccc2c1OB(O)[C@@H](OCc1ccccc1)C2 [Compound 13, (R)-3-(benzyloxy)-2-hydroxy-3,4-dihydro-2H-benzo[e][1,2]oxaborinine-8-carboxylic acid] | 10 to 100 nM | < 1000 nM | 10 to 100 nM | – | –
15 | Nn1cnnc1S[C@H]1Cc2cccc(C(=O)O)c2OB1O [Compound 14, (R)-3-(4-amino-4H-1,2,4-triazol-3-ylthio)-2-hydroxy-3,4-dihydro-2H-benzo[e][1,2]oxaborinine-8-carboxylic acid] | – | < 1000 nM | – | < 100 nM | –
16 | C[C@@H](O)[C@H]1C(=O)N2C(C(=O)O)=C(SCCN=CN)C[C@H]12 [Imipenem] | – | – | – | – | MIC (AB1144 (NDM-1); read-out: Imipenem MIC Alone): > 10 µg/mL; MIC ([5]; read-out: Imipenem MIC Alone): > 10 µg/mL; MIC ([6]; read-out: Imipenem MIC Alone): > 10 µg/mL; MIC (KP1014 (VIM-1); read-out: Imipenem MIC Alone): > 10 µg/mL; MIC (KP1054 (VIM-1, SHV-11); read-out: Imipenem MIC Alone): 1 to 10 µg/mL; MIC ([7]; read-out: Imipenem MIC Alone): > 10 µg/mL; MIC ([8]; read-out: Imipenem MIC Alone): > 10 µg/mL; MIC ([1]; read-out: Imipenem MIC Alone): > 10 µg/mL; MIC ([9]; read-out: Imipenem MIC Alone): > 10 µg/mL; MIC ([10]; read-out: Imipenem MIC Alone): > 10 µg/mL; MIC ([11]; read-out: Imipenem MIC Alone): 1 to 10 µg/mL
17 | C[C@@H](O)[C@H]1C(=O)N2C(C(=O)O)=C(S[C@@H]3CN[C@H](C(=O)N(C)C)C3)[C@H](C)[C@H]12 [Meropenem] | – | – | – | – | MIC (AB1144 (NDM-1); strain AB1144, read-out: Meropenem MIC Alone): > 10 µg/mL; MIC ([5]; read-out: Meropenem MIC Alone): > 10 µg/mL; MIC ([6]; read-out: Meropenem MIC Alone): 1 to 10 µg/mL; MIC (KP1014 (VIM-1); read-out: Meropenem MIC Alone): 1 to 10 µg/mL; MIC (KP1054 (VIM-1, SHV-11); read-out: Meropenem MIC Alone): > 10 µg/mL; MIC ([7]; read-out: Meropenem MIC Alone): > 10 µg/mL; MIC ([8]; read-out: Meropenem MIC Alone): > 10 µg/mL; MIC ([1]; read-out: Meropenem MIC Alone): > 10 µg/mL; MIC ([9]; read-out: Meropenem MIC Alone): > 10 µg/mL; MIC ([10]; read-out: Meropenem MIC Alone): > 10 µg/mL; MIC ([11]; read-out: Meropenem MIC Alone): > 10 µg/mL
